Laboratory results: paper PMC10451668, “Natural Acetogenins, Chatenaytrienins-1, -2, -3 and -4, Mitochondrial Potential Uncouplers and Autophagy Inducers—Promising Anticancer Agents” (Antioxidants, 2023)

Columns and labels:
Type in all cases: cell-based, human
Jurkat cell lysates = assay: Multiplex analysis of signaling, genotoxicity and early apoptosis proteins (MILLIPLEX MAP, Luminex)
Experimental: Multiplex analysis was performed according to a previously published method. MILLIPLEX®MAP technology is used to determine the total protein or phosphorylated protein levels of various biological analytes, such as kinases or signaling proteins, including CREB, ERK/MAP, p70 S6, p21, p38, PI3K/AKT/mTOR, JNK (A), p53, MDM2, Bcl-2/Bax, STAT3 and STAT5, Nf-kB, Caspase 3-8-9, JNK, ATM, Chk1, Chk2, and H2AX, in cell lysates using the Luminex® system ((MILLIPLEX Multi-Pathway Magnetic Bead 9-Plex—Cell Signaling Multiplex Assay kit, Merk, Germany). This MILLIPLEX®MAP technology provides an alternative to Western blotting and immunoprecipitation and has several important advantages, such as more accurate measurement of small amounts of protein and the elimination of analyte loss during sample preparation. The multiplex immunoassay (MILLIPLEX 48-680MAG; Merck Millipore, Germany) was performed in Millipore 96-well plates to detect changes in concentrations of phosphorylated and unphosphorylated proteins p53, MDM2, p21, p38, PI3K/AKT/mTOR, Bcl-2/Bax, STAT3 and STAT5, Nf-kB, Caspase 3 -8-9, CREB, ERK/MAP, p70 S6, JNK, ATM, Chk1, Chk2, and H2AX in Jurkat cell lysates.
The levels of phosphorylated and non-phosphorylated proteins were analyzed using MILLIPLEX® map technology to study the analytes in the same sample within a fairly short time. Various deviations in protein concentration due to external factors or detection errors that could affect the results of the experiment were thereby reduced to zero.
The expression of p53, MDM2, p21, p38, PI3K/AKT/mTOR, Bcl-2/Bax, STAT3 and STAT5, Nf-kB, Caspase 3-8-9, CREB, ERK/MAP, p70 S6, JNK, ATM, Chk1, Chk2, and H2AX proteins in lysate samples of Jurkat tumor cells were studied using Luminex technology with the MILLIPLEX® MAP 9-Plex Multi-Pathway 9-plex Magnetic Bead Kit. This bead-based assay involved color-coded fluorescent particles pre-coated with specific antibodies targeting 9 major kinases in signaling pathways.

Jurkat cells [1] = assay: Oxidative stress and early apoptosis (MitoSOX Red and annexin V, MitoStress Kit); settings: compound at CC50, 4 h
Source text: Changes in the mitochondrial membrane potential (ΔΨ) in Jurkat cells induced by treatment with the synthesized compounds were detected using MitoSOX Red, a positively charged probe that accumulates rapidly in mitochondria and as such can be used to detect superoxide/ROS production within mitochondria using fluorometry, microscopy, or flow cytometry. Live cells induced a low level of MitoSOX Red fluorescence, while cells with scattered mitochondrial membrane potential caused much higher MitoSOX Red fluorescence. Annexin V is a dye commonly used to detect early signs of apoptosis. […] Thus, using two different dyes, MitoSOX Red and annexin V (CF488A), in the FlowCellect™ MitoStress Kit (FCCH100109), we analyzed the mitochondrial membrane potential dissipation and associated apoptosis in Jurkat cells in response to the synthesized chatenaytrienins.
Therefore, simultaneous detection of mitochondrial superoxide generation (detected by MitoSOX Red membrane-penetrating dye) and expression of phosphatidylserine on the cell surface of apoptotic cells (assessed by binding of annexin V) in the same cell sample provides an accurate evaluation of the ability of the test compound to initiate oxidative stress in cell culture and induce apoptosis.

Jurkat tumor cell line = assay: Assessment of cytochrome c loss (FlowCellect Cytochrome c Kit); settings: compound at CC50, incubation 3 h, anti-cytochrome c-FITC
Experimental: Quantification of cytochrome c release from mitochondria in apoptotic cells was presented to detect the mitochondrial pathway of apoptosis in cells using flow cytometry with the FlowCellect™ Cytochrome c Kit (FCCH100110). For this, cells were treated with FITC-conjugated antibodies against cytochrome c and control anti-IgG1-FITC, together with the use of an optimized fixation procedure, permeabilization, and blocking buffer (Luminex®, USA). […] Jurkat cells were incubated for 4 h with the synthesized substances at a concentration corresponding to their 24-h CC50 in a culture plate and assessed using the NovoCyte Penteon Flow Cytometer System (Agilent, 5301 Stevens Creek Blvd., Santa Clara, CA, USA). The obtained data were processed using NovoExpress® software (ACEA).

Jurkat cells [2] = assay: Detection of mitodamage: mitochondrial membrane potential and apoptosis (MitoSense Red, annexin V, 7-AAD); settings: compound at CC50, 4 h
Source text: The use of reagents MitoSense Red, annexin V, and 7-AAD in the Millipore FlowCellect™ MitoDamage Kit allowed us to gain information on early, mid, and late apoptosis with one simple assay. […] After this time, the cells were dissociated using an accutase solution, stained, and analyzed using the NovoCyte Penteon Flow Cytometer System (Agilent, 5301 Stevens Creek Blvd., Santa Clara, CA, USA), according to the manufacturer’s protocols for the FlowCellect™ MitoDamage Kit and FlowCellect™ Oxidative Stress Characterization Kit (Merck).
Detection of mitochondrial potential dissipation using MitoSense Red, annexin V, and 7-AAD provided a simultaneous measurement of three important parameters of the cell state within the same cell sample: the state of the mitochondrial potential (Δψ), detected by the membrane-penetrating MitoSense Red dye; the expression of phosphatidylserine on the cell surface of apoptotic cells, assessed by the binding of annexin V to externalized phosphatidylserine; and the binding of 7-AAD to DNA in cells in the late stages of apoptosis. Multiparametric evaluation of these indicators of cell viability made it possible to determine the correlation and relationship between oxidation dissipation and phosphorylation with apoptosis.

SMILES: CCCCCCCCCC/C=C\CC/C=C\CC/C=C\CCCCCCCCCCC1=C[C@H](C)OC1=O [compound 1, chatenaytrienin-1]
- expression of caspase-8 (Jurkat cell lysates; 6 h and 12 h): did not significantly affect
- levels of Akt, p38, and CREB (Jurkat cell lysates; compound at CC50, 4 h): most pronouncedly suppressed
- levels of all types of kinase proteins (CREB, JNK, NFkB, p38, ERK1/2, Akt, p70S6K, STAT3, STAT5) (Jurkat cell lysates; compound at CC50, 4 h, MFI versus intact cells): most pronouncedly reduced
- cleaved caspase-9 (Jurkat cell lysates; especially after 12 h, level exceeded control): promoted the accumulation
- level of BAD protein (Jurkat cell lysates; first 6 h, within 12 h began to increase again, not reaching control): decreased
- cells demonstrating oxidative stress along with the marker of early apoptosis, annexin (Jurkat cells [1]; MitoSOX Red and annexin V): 10.53%
- cells in early apoptosis (Jurkat cells [1]; annexin V): 75%
- cells with cytochrome c released into the cytoplasm (Negative gate) (Jurkat tumor cell line): 61.67%
- cells in late apoptosis (stained with 7-AAD) (Jurkat cells [2]; Jurkat): 15.11%
- Jurkat tumor cells with the Δψ dissipation phenomenon (Jurkat cells [2]; MitoSense Red): 83.69%
